The record followed here is US20240239755A1, “SUBSTITUTED PYRIDAZINONES, SALTS OR N-OXIDES THEREOF AND THEIR USE AS HERBICIDALLY ACTIVE SUBSTANCES” (Bayer Aktiengesellschaft, priority 2021, published 2024).

Format in all cases: in vivo
Assay [1] relates to Matricaria inodora (MATIN). Kind of assay: Herbicidal post-emergence action, 1280 g/ha (Table B6). Conditions: visual assessment after ca. 3 weeks vs untreated controls. The essentials:
(§1)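 Read-out is visual herbicidal effect in percent against untreated controls (100% = dead plants, 0% = like controls), scored about 3 weeks after treatment. Plants at the single-leaf stage were sprayed on green parts with aqueous WP or EC preparations containing 0.5% additive, 600 L water/ha.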

The subject of assay [2] is Lolium rigidum (LOLRI). Kind of assay: Herbicidal post-emergence action, 320 g/ha, LOLRI. Conditions: visual grading after ca. 3 weeks. The source says:
(§2) Seeds of mono- and dicotyledonous weed plants were sown in plastic pots (double sowings with one species of mono- and one species of dicotyledonous weed plants per pot), in sandy loam, covered with soil and grown under controlled growth conditions. 2 to 3 weeks after sowing, the test plants were sprayed in the single-leaf stage. The compounds according to the invention, formulated in the form of wettable powders (WP) or as emulsifiable concentrates (EC), were sprayed onto the green plant parts as an aqueous suspension or as an emulsion, with the addition of 0.5% of an additive, at an application rate of 600 litres of water per hectare (converted). The test plants were placed in the greenhouse for ca. 3 weeks under optimum growth conditions, and then the effect of the preparations was assessed visually in comparison with untreated controls (herbicidal effect in percent (%): 100% effect=plants have died, 0% effect=as control plants).
(§3) Tables D1 to D8 below, show the effects of selected compounds of the general formula (I) according to Table 1 on various harmful plants using an application rate corresponding to 320 g/ha obtained by the experimental procedure mentioned above.

In assay [3] the test system is Amaranthus retroflexus (AMARE). As to the kind of experiment: Herbicidal post-emergence action, 1280 g/ha, AMARE. Particulars: visual grading vs untreated controls. The essentials:
(§4)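 Pot-grown weeds in sandy loam sprayed post-emergence at the single-leaf stage, 2–3 weeks after sowing, with WP or EC formulations plus 0.5% additive in 600 L water/ha at 1280 g/ha. After ca. 3 weeks in the greenhouse, damage scored visually as % effect versus untreated controls (100% = plants dead).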

The test system of assay [4] is Stellaria media (STEME). Kind of assay: Herbicidal post-emergence action, 320 g/ha, STEME. Particulars: visual grading after ca. 3 weeks. The essentials:
(§5)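 Post-emergence spray at single-leaf stage; WP/EC in aqueous suspension/emulsion, 0.5% additive, 600 L water/ha. Greenhouse ~3 wk, visual rating vs untreated: 0% = as control, 100% = plants dead.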

Assay [5] concerns Stellaria media (STEME). Kind of assay: Herbicidal pre-emergence action, 1280 g/ha (Table A9). Conditions: visual grading after ca. 3 weeks vs untreated controls. The essentials:
(§6)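 Pre-emergence soil-surface spray, sandy loam, mono-/dicot double sowings per pot; WP or EC formulations, aqueous, +0.5% additive, 600 L/ha water. Greenhouse, optimum conditions. Visual % damage vs untreated at ca. 3 wk (100% = dead).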

Assay [6] has as its system Lolium rigidum (LOLRI). As to the kind of experiment: Herbicidal pre-emergence action, 1280 g/ha (Table A5). Conditions: visual grading after ca. 3 weeks vs untreated controls. The essentials: as §6
Assay [7] has as its system Lolium rigidum (LOLRI). As to the kind of experiment: Herbicidal post-emergence action, 1280 g/ha (Table B5). Conditions: visual assessment after ca. 3 weeks vs untreated controls.
Excerpt: as §2, with “plants). Tables B1 to B11 below, show the effects of selected compounds of the general formula (I) according to Table 1 on various harmful plants using an application rate corresponding to 1280 g/ha obtained by the experimental procedure mentioned above.” for “plants).”

The test system of assay [8] is Abutilon theophrasti (ABUTH). Kind of assay: Herbicidal post-emergence action, 320 g/ha, ABUTH. Particulars: visual grading after ca. 3 weeks. The essentials:
as §5

For assay [9], the system named is Veronica persica (VERPE). Kind of assay: Herbicidal post-emergence action, 1280 g/ha, VERPE. Particulars: visual grading vs untreated controls. The essentials: as §4
Assay [10] relates to Kochia scoparia (KCHSC). Kind of assay: Herbicidal post-emergence action, 1280 g/ha (Table B4). Particulars: visual assessment after ca. 3 weeks vs untreated controls. The essentials:
as §1

For assay [11], the system named is Amaranthus retroflexus (AMARE). Kind of assay: Herbicidal post-emergence action, 320 g/ha, AMARE. Particulars: visual grading after ca. 3 weeks. The essentials: as §5
Assay [12] has as its system Abutilon theophrasti (ABUTH). As to the kind of experiment: Herbicidal post-emergence action, 1280 g/ha (Table B1). Particulars: visual assessment after ca. 3 weeks vs untreated controls. The essentials:
as §1

The subject of assay [13] is Veronica persica (VERPE). As to the kind of experiment: Herbicidal post-emergence action, 320 g/ha, VERPE. Particulars: visual grading after ca. 3 weeks.
Excerpt: as §2, §3

The subject of assay [14] is Stellaria media (STEME). Kind of assay: Herbicidal post-emergence action, 1280 g/ha (Table B9). Particulars: visual assessment after ca. 3 weeks vs untreated controls. The essentials: as §1
Another assay relates to Setaria viridis (SETVI). As to the kind of experiment: Herbicidal pre-emergence action, 1280 g/ha (Table A8). Conditions: visual grading after ca. 3 weeks vs untreated controls. The source says: (§7) Seeds of mono- and dicotyledonous weed plants were sown in plastic pots (double sowings with one species of mono- and one species of dicotyledonous weed plants per pot), in sandy loam, and covered with soil. The compounds according to the invention, formulated in the form of wettable powders (WP) or as emulsifiable concentrates (EC), were applied to the surface of the covering soil as an aqueous suspension or as an emulsion, with the addition of 0.5% of an additive, at an application rate of 600 litres of water per hectare (converted). Following treatment, the pots were placed in a greenhouse and kept under optimum growth conditions for the test plants. The visual grading of the damage to the test plants was carried out after ca. 3 weeks in comparison to untreated controls (herbicidal effect in percent (%): 100% effect=plants have died, 0% effect=as control plants). Tables A1 to A11 below, show the effects of selected compounds of the general formula (I) according to Table 1 on various harmful plants and an application rate corresponding to 1280 g/ha obtained by the experimental procedure mentioned above.

Assay [15] deals with Amaranthus retroflexus (AMARE). As to the kind of experiment: Herbicidal pre-emergence action, 1280 g/ha (Table A11). Particulars: visual grading after ca. 3 weeks vs untreated controls. The essentials:
as §6

For assay [16], the system named is Lolium rigidum (LOLRI). Kind of assay: Herbicidal pre-emergence action, 320 g/ha (Table C2). Particulars: visual grading after ca. 3 weeks vs untreated controls.
Excerpt: as §7, with “Tables C1” for “Tables A1”, “to C6” for “to A11”, “plants using” for “plants and”, “to 320” for “to 1280”

For assay [17], the system named is Matricaria inodora (MATIN). Kind of assay: Herbicidal pre-emergence action, 1280 g/ha (Table A6). Conditions: visual grading after ca. 3 weeks vs untreated controls. The essentials: as §6
In assay [18] the test system is Kochia scoparia (KCHSC). Kind of assay: Herbicidal pre-emergence action, 1280 g/ha (Table A4). Conditions: visual grading after ca. 3 weeks vs untreated controls. The essentials: as §6
Assay [19] concerns Matricaria inodora (MATIN). As to the kind of experiment: Herbicidal post-emergence action, 320 g/ha, MATIN. Particulars: visual grading after ca. 3 weeks.
Excerpt: as §2, §3

In assay [20] the test system is Kochia scoparia (KCHSC). As to the kind of experiment: Herbicidal post-emergence action, 320 g/ha, KCHSC. Conditions: visual grading after ca. 3 weeks.
Excerpt: as §2, §3

The test system of assay [21] is Abutilon theophrasti (ABUTH). Kind of assay: Herbicidal pre-emergence action, 1280 g/ha (Table A1). Particulars: visual grading after ca. 3 weeks vs untreated controls.
Excerpt: as §7

In the case of `CCOC(=O)Oc1c(C)nn(C)c(=O)c1Oc1c(F)cccc1C1CC1` [Example I-085], the “herbicidal effect MATIN” value in [1] is given as 100%. Further, the “herbicidal effect LOLRI” value is 90% in the assay with Lolium rigidum (LOLRI) [2], 100% with Lolium rigidum (LOLRI) [6] and 100% in the assay with Lolium rigidum (LOLRI) [7]. Further, the “herbicidal effect AMARE” value is 100% in assay [3] and 90% in assay [11]. Besides, the “herbicidal effect STEME” value in the assay with Stellaria media (STEME) [4] was 100%; with Stellaria media (STEME) [5], 90%; with Stellaria media (STEME) [14], 100%. The “herbicidal effect ABUTH” value in [8] amounted to 90%; in assay [12], 100%. Further, the “herbicidal effect VERPE” value turned out to be 100% with Veronica persica (VERPE) [9] and 90% in the assay on Veronica persica (VERPE) [13]. Moreover, the “herbicidal effect KCHSC” value with Kochia scoparia (KCHSC) [10] is listed as 100%.
Turning to `Cc1nn(C)c(=O)c(Oc2cc(F)c(F)cc2C2CC2)c1O` [Example I-101], the “herbicidal effect MATIN” value in assay [1] was 90%; in assay [17] it was 100%. The “herbicidal effect AMARE” value in assay [3] is reported as 100%; in assay [15], 100%; in [11] it was 90%. The “herbicidal effect STEME” value with Stellaria media (STEME) [4] came out at 90%; with Stellaria media (STEME) [5], 100%; with Stellaria media (STEME) [14], 100%. Besides, the “herbicidal effect LOLRI” value worked out at 100% with Lolium rigidum (LOLRI) [6], 90% in the assay on Lolium rigidum (LOLRI) [7] and 90% in the assay with Lolium rigidum (LOLRI) [16]. For the same compound, in the assay on Setaria viridis (SETVI), the “herbicidal effect SETVI” value was 90%. Moreover, the figures for the “herbicidal effect ABUTH” value in [8] and in assay [12] were 90% and 100%, respectively. Moreover, the “herbicidal effect VERPE” value in the assay on Veronica persica (VERPE) [9] came to 100%; with Veronica persica (VERPE) [13] it was 90%. Also, the results for the “herbicidal effect KCHSC” value with Kochia scoparia (KCHSC) [10] and in the assay with Kochia scoparia (KCHSC) [18] were 90% and 100%, respectively.
`CC(=O)Oc1c(C)nn(C)c(=O)c1Oc1ccccc1OC(F)F` [Example I-081]: the “herbicidal effect MATIN” value in [1] is on record as 100%; in [19], 90%; in assay [17], 90%. Further, the “herbicidal effect LOLRI” value with Lolium rigidum (LOLRI) [2], in the assay with Lolium rigidum (LOLRI) [6] and with Lolium rigidum (LOLRI) [7] was 90% in each case. For the same compound, the “herbicidal effect AMARE” value is given as 100% in assay [3] and 90% in assay [11]. Besides, the “herbicidal effect STEME” value in the assay on Stellaria media (STEME) [4], with Stellaria media (STEME) [5] and with Stellaria media (STEME) [14] was 90% in each case. Also, the “herbicidal effect ABUTH” value is listed as 90% in assay [8] and 100% in [12]. Further, the “herbicidal effect VERPE” value with Veronica persica (VERPE) [9] worked out at 100%. Also, the “herbicidal effect KCHSC” value with Kochia scoparia (KCHSC) [10] was determined as 100%.
Regarding `CCOC(=O)Oc1c(C)nn(C)c(=O)c1Oc1ccccc1C(F)(F)F` [Example I-009, [1,3-dimethyl-6-oxo-5-[2-(trifluoromethyl)phenoxy]pyridazin-4-yl] ethyl carbonate], in the assay on Setaria viridis (SETVI), the “herbicidal effect SETVI” value came out at 100%.
`CCOC(=O)Oc1c(C)nn(C)c(=O)c1Oc1cccc(F)c1C1CC1` [Example I-058]: in assay [1], the “herbicidal effect MATIN” value was 100%. The figures for the “herbicidal effect LOLRI” value in the assay with Lolium rigidum (LOLRI) [2], in the assay on Lolium rigidum (LOLRI) [6] and in the assay with Lolium rigidum (LOLRI) [7] were 90%, 90% and 100%, respectively. For the same compound, the “herbicidal effect AMARE” value in assay [3] and in assay [11] was 90% in each case. Moreover, the “herbicidal effect STEME” value in the assay with Stellaria media (STEME) [4], in the assay with Stellaria media (STEME) [5] and with Stellaria media (STEME) [14] was 90% throughout. The “herbicidal effect ABUTH” value worked out at 90% in assay [8] and 100% in assay [12]. The “herbicidal effect VERPE” value in the assay with Veronica persica (VERPE) [9] is 90%. In addition, the entries for the “herbicidal effect KCHSC” value in the assay on Kochia scoparia (KCHSC) [10], in the assay on Kochia scoparia (KCHSC) [20] and in the assay on Kochia scoparia (KCHSC) [18] were 100%, 90% and 90%, respectively.
For the compound `Cc1nn(C)c(=O)c(Oc2cc(Cl)ccc2C2CC2)c1O` [Example I-071], the “herbicidal effect AMARE” value is 100% in assay [3] and 90% in assay [11]. Moreover, the “herbicidal effect STEME” value in the assay with Stellaria media (STEME) [4] was determined as 90%; in the assay on Stellaria media (STEME) [5], 90%; in the assay with Stellaria media (STEME) [14] it was 100%. Besides, the “herbicidal effect LOLRI” value in the assay on Lolium rigidum (LOLRI) [6] is 100%. For the same compound, the “herbicidal effect SETVI” value in the assay on Setaria viridis (SETVI) was 90%. Also, the “herbicidal effect ABUTH” value came to 100% in assay [8], 100% in [12] and 90% in assay [21]. Further, in the assay with Veronica persica (VERPE) [9], the “herbicidal effect VERPE” value turned out to be 90%. In addition, in assay [17], the “herbicidal effect MATIN” value came to 100%.
